These results are taken from patent publication US20230263792A1, “USE OF 2,3,5-SUBSTITUTED THIOPHENE COMPOUND FOR PREVENTING, ALLEVIATION, OR TREATING MASTOCYTOSIS” (PHAROS IBIO CO., LTD, priority 2020, published 2023).

For one assay, the target named is T1, KIT (V559D) (Homo sapiens, UniProt P10721, V559D).
T1 construct: T7 phage fusion or DNA label for qPCR detection; made in house; host or cells: T7 phage in E. coli BL21-derived host, or HEK-293 cells (both named)
Nature of the assay: Kinase binding assay (Kd, qPCR detection). How it is done: (§1) A kinase-tagged T7 phage strain was prepared from an E. coli host derived from a BL21 strain. E. coli was grown in log-phase, infected with T7 phage, and then incubated with shaking at 32° C. until lysis. The lysates were centrifuged and filtered to remove cell debris. Thereafter, the kinase produced in HEK-293 cells was labeled with DNA for qPCR detection. Streptavidin-coated magnetic beads were treated with biotinylated small molecule ligand for 30 minutes at room temperature to produce affinity resins for kinase assay. The liganded beads were blocked with excess biotin and washed with blocking buffer (SeaBlock(Pierce), 1% BSA, 0.05% Tween 20, 1 mM DTT) to remove unbound ligand and to reduce nonspecific binding. Binding reactions were induced by combining kinase, ligand affinity beads and PHI-101 in 1× binding buffer (20% SeaBlock, 0.17× PBS, 0.05% Tween 20, 6 mM DTT). PHI-101 was prepared as a 111X stock in 100% DMSO. The binding constant (Kd) was determined using an 11-point 3-fold compound dilution series with three DMSO control points. All compounds for Kd measurements were dispensed by acoustic transfer (non-contact dispensing) in 100% DMSO. The compounds were then diluted directly into the assays such that the final concentration of DMSO was 0.9%. All reactions were performed in polypropylene 384-well plates at a final volume of 0.02 ml. The assay plates were incubated at room temperature with shaking for 1 hour and the affinity beads were washed with wash buffer (1× PBS, 0.05% Tween 20). The beads were then re-suspended in elution buffer (1× PBS, 0.05% Tween 20, 0.5 μM non-biotinylated affinity ligand) and incubated at room temperature with shaking for 30 minutes. The kinase concentration in the eluates was measured by qPCR.
(§2) 11-point 3-fold serial dilutions of each test compound were prepared in 100% DMSO at 100×final test concentration and then diluted to 1× in the assay (final DMSO concentration=1%). Most Kd values were determined using a compound top concentration=30,000 nM. If the initial Kd determined was <0.5 nM (lowest concentration tested), the measurement was repeated with a serial dilution starting at a lower top concentration.
(§3) The Kd value of c-kit protein was calculated with a standard dose-response curve (Equation 1) using the Hill equation.
(§4) The Hill Slope was set to −1. Curves were fitted using a non-linear least square fit with the Levenberg-Marquardt algorithm.
(In general: In qPCR the cycle at which signal appears reflects the starting amount.)

The target of a further assay is T2, KIT (L576P) (Homo sapiens, UniProt P10721, L576P).
T2 construct: T7 phage fusion or DNA label for qPCR detection; made in house; host or cells: T7 phage in E. coli BL21-derived host, or HEK-293 cells (both named)
T2 sequence (P10721 26-976 L576P): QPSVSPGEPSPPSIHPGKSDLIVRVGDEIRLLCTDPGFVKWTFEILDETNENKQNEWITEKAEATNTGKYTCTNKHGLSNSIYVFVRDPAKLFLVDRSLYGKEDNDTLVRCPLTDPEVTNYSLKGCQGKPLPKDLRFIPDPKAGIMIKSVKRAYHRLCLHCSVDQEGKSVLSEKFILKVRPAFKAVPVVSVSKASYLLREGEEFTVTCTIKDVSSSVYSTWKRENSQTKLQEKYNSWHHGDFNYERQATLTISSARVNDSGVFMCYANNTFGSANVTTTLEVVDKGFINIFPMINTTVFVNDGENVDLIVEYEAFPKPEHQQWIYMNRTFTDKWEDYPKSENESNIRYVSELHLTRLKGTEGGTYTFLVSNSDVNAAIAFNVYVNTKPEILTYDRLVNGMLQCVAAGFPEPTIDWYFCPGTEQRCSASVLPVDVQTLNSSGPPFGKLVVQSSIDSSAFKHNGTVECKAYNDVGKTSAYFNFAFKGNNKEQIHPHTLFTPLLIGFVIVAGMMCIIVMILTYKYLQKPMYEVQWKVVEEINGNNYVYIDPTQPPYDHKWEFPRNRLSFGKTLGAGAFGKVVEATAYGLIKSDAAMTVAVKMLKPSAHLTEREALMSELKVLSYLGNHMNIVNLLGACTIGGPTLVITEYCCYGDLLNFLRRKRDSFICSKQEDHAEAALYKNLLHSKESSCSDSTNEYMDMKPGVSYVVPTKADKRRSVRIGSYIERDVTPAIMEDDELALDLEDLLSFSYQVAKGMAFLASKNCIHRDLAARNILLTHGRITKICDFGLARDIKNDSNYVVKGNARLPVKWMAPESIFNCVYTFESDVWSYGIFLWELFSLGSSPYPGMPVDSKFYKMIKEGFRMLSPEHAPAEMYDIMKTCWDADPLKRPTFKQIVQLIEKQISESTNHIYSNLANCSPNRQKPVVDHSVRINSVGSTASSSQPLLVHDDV
As to the kind of experiment: Kinase binding assay (Kd, qPCR detection). The procedure:
as §1, §2, §3, §4

Another assay deals with T3, KIT (V559D, T670I) (Homo sapiens, UniProt P10721, T670I/V559D).
T3 construct: T7 phage fusion or DNA label for qPCR detection; made in house; host or cells: T7 phage in E. coli BL21-derived host, or HEK-293 cells (both named)
T3 sequence (P10721 26-976 V559D/T670I): as the sequence (P10721 26-976 L576P) above, with V534D, P551L, T645I counted along it
Nature of the assay: Kinase binding assay (Kd, qPCR detection). How it is done: as §1, §2, §3, §4

A further assay deals with T4, KIT (D816V) (Homo sapiens, UniProt P10721, D816V).
T4 construct: T7 phage fusion or DNA label for qPCR detection; made in house; host or cells: T7 phage in E. coli BL21-derived host, or HEK-293 cells (both named)
T4 sequence (P10721 26-976 D816V): as the sequence (P10721 26-976 L576P) above, with P551L, D791V counted along it
Nature of the assay: Kinase binding assay (Kd, qPCR detection). How it is done:
as §1, §2, §3, §4

For a further assay, the target named is T5, KIT (A829P) (Homo sapiens, UniProt P10721, A829P).
T5 construct: T7 phage fusion or DNA label for qPCR detection; made in house; host or cells: T7 phage in E. coli BL21-derived host, or HEK-293 cells (both named)
T5 sequence (P10721 26-976 A829P): as the sequence (P10721 26-976 L576P) above, with P551L, A804P counted along it
As to the kind of experiment: Kinase binding assay (Kd, qPCR detection). The procedure: as §1, §2, §3, §4

Another assay concerns the target T6, KIT (V559D, V654A) (Homo sapiens, UniProt P10721, V559D/V654A).
T6 construct: T7 phage fusion or DNA label for qPCR detection; made in house; host or cells: T7 phage in E. coli BL21-derived host, or HEK-293 cells (both named)
As to the kind of experiment: Kinase binding assay (Kd, qPCR detection). The procedure: as §1, §2, §3, §4

In the next assay the target is T7, KIT (D816H) (Homo sapiens, UniProt P10721, D816H).
T7 construct: T7 phage fusion or DNA label for qPCR detection; made in house; host or cells: T7 phage in E. coli BL21-derived host, or HEK-293 cells (both named)
T7 sequence (P10721 26-976 D816H): as the sequence (P10721 26-976 L576P) above, with P551L, D791H counted along it
Nature of the assay: Kinase binding assay (Kd, qPCR detection). The procedure: as §1, §2, §3, §4

In assay [1] the test system is cleaved PARP and cleaved caspase-3 in HMC-1.2 cell line. Nature of the assay: Western blot of cleaved PARP and cleaved caspase-3, HMC-1.2. Type of assay: cell-based. Conditions: HMC-1.2, 0.1 and 1 μM, controls 1 μM, FIG. 8. The procedure:
Specifically, the c-kit D816V mutant Ba/F3 cell line was dispensed at a concentration of 1×10^6 cells/ml, treated with each of the control compounds and PHI-101 at concentrations of 0.1, 1 and 10 μM, and then cultured for 2 hours. Next, lysates of the cells were obtained using lysis buffer (50 mM Tris-HCl pH 7.5, 1% NP40, 1 mM EDTA, 150 mM NaCl, 5 mM, Na3VO4 and 2.5 mM NaF, and a protease inhibitor cocktail). Equal amounts of the cell lysates were electrophoresed using 8% SDS-PAGE gel at 100 V for 1 hour and 30 minutes, and the separated protein was electrically transferred to nitrocellulose membranes. […] Next, the membranes were washed three times with TBST for 5 minutes each time and treated with a chemiluminescent substrate reagent, and the expression level of the protein was measured by detecting luminescence with an X-ray film in the dark.
A mastocytosis cell line was treated with PHI-101, and the levels of cleaved PARP and cleaved caspase-3, which are apoptosis markers, were analyzed. […]
Specifically, the apoptotic effect of PHI-101 against the HMC-1.2 cell line was analyzed in the same manner as in Example 1-2, except that the HMC-1.2 cell line was treated with each of the control compounds at a concentration of 1 μM and PHI-101 at concentrations of 0.1 and 1 μM, and that cleaved PARP and cleaved caspase-3, each diluted at 1:5,000, were used as primary antibodies.
On the technique in general: In western blotting, separated proteins are transferred to a membrane and probed.

pKd: −log10 of the molar value.

Usually pKd stands for the negative decadic logarithm of the Kd, by convention in mol/L.

T1 sequence (P10721 26-976 V559D): as the sequence (P10721 26-976 L576P) above, with V534D, P551L counted along it
T6 sequence (P10721 26-976 V559D/V654A): as the sequence (P10721 26-976 L576P) above, with V534D, P551L, V629A counted along it

`NC(=O)Nc1cc(C#Cc2cccc(F)c2)sc1C(=O)N[C@H]1CCCNC1` [PHI-101]: the pKd on KIT (V559D) was 7.80; at KIT (L576P) it was 7.41; at KIT (V559D, T670I), 7.57; at KIT (D816V) it was 8.68; at KIT (A829P), 8.89; on KIT (V559D, V654A), 7.59. The pKd at KIT (D816H) was 8.32. In addition, in assay [1], the “levels of cleaved PARP and cleaved caspase-3” value was “higher than those in the HMC-1.2 cell lines treated with the control compounds”.
